Measured values: BindingDB's records for doi:10.1021/jm00050a008 (University of North Carolina, 1995)

assay: The compound was tested for affinity towards sigma-3 receptor

SMILES | IC50
CCN(CC)C1Cc2ccccc2C(c2ccccc2)C1 (trans isomer) | 2.2 nM
CNC1Cc2ccccc2C(c2ccccc2)C1 (stereo not given) | 79 nM
CCCN(C)C1Cc2ccccc2C(c2ccccc2)C1 (stereo not given) | 4.5 nM

More lines, in order of falling IC50, values ahead:

IC50 | SMILES
59 nM | CCCNC1Cc2ccccc2C(c2ccccc2)C1 (stereo not given)
13 nM | CCCN(CCC)C1Cc2ccccc2C(c2ccccc2)C1 (stereo not given)
